In patent publication USRE43005E1, “Compositions and methods for their preparation from lepidium” (Naturex Inc., priority 1999, dated 2011):

melting point [°C] | SMILES
76 to 78 | CCCCCCCC(=O)NCc1ccccc1 [MA-3, N-benzyl octanamide]
115 to 116 | CCC(=O)/C=C/C=C/C=C/C(=O)CCCCCCCC(=O)NCc1ccccc1 [MA-9, N-benzyl-9,16-dioxo-10E,12E,14E-octadecatrienamide]
